Experiment [1] deals with T1, human NTPDase1 (Homo sapiens, UniProt P49961).
T1 sequence (P49961 1-510): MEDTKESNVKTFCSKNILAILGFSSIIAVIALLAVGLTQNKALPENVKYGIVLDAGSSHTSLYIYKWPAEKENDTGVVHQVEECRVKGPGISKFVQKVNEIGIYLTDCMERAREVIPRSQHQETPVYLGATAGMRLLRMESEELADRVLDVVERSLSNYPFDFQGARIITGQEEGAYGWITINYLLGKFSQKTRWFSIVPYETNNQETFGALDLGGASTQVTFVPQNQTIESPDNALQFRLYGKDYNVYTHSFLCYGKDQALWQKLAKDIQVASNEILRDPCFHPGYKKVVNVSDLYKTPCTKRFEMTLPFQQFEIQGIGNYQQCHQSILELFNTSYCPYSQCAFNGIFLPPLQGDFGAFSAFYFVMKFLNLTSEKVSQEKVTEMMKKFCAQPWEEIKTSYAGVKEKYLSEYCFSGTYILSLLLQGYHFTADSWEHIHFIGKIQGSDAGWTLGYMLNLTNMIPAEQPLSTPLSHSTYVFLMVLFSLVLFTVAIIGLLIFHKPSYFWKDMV
The experiment can be described thus: Capillary electrophoresis assay for human NTPDase1. It counts as biochemical. The following applies: ATP (100 μM) as substrate. As to the method: (§1) Inhibitory activity of the CD73 inhibitors 2 and 20 at human NTPDases 1, 2, 3, and 8 was investigated using ATP (100 μM) as a substrate according to previously published procedures.^24 ATP and 2 were co-incubated with recombinantly expressed human NTPDases at 37° C. for 30 min, and the enzymatic reaction was terminated by heating at 90° C. for 10 min. The amount of enzyme preparation was adjusted to ensure 10-20% of substrate conversion. The formed products were separated by capillary electrophoresis (CE) and individually quantitated by diode array detection (DAD) at a wavelength of 260 nm. For inhibition analysis, at least three independent experiments were performed each in triplicate. The inhibition of the enzyme activity was calculated in relation to the positive control without inhibitor and plotted by GraphPad Prism 8 software (GraphPad software, San Diego, CA, USA) (for results see Table 2 and Table 3).
(§2) Test compounds were investigated at a concentration of 50 μM, and 100 μM ATP substrate according to published procedures.^24 Recombinantly expressed human NTPDases were employed. The amount of enzyme preparation was adjusted to ensure 10-20% of substrate conversion. […] The inhibition of the enzyme activity was calculated in relation to the positive control without inhibitor and plotted in GraphPad Prism 8 software (GraphPad software, San Diego, CA, USA). […]

In experiment [2] the target is T2, human NTPDase2 (Homo sapiens, UniProt Q9Y5L3).
T2 sequence (Q9Y5L3 1-495): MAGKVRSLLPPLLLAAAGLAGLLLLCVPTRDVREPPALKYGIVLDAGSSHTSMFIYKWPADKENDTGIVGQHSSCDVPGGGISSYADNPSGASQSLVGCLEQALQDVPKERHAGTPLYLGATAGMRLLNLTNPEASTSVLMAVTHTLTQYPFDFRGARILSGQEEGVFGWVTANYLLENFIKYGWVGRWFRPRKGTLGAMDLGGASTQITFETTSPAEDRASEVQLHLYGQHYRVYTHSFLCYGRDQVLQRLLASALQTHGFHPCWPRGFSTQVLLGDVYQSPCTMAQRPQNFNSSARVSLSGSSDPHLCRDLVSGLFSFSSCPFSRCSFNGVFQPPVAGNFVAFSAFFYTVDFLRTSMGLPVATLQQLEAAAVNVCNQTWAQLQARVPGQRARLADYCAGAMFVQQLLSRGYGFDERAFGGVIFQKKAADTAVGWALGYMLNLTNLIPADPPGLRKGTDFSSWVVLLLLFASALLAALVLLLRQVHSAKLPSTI
The experiment can be described thus: Capillary electrophoresis assay for human NTPDase2. It counts as biochemical. The conditions noted are these: ATP (100 μM) as substrate. As for the experimental part:
as §1, §2

For two compounds, IC50 results are on record in patent US20250382322A1, “DIAGNOSTICS FOR DETECTING ECTO-5'-NUCLEOTIDASE (CD73)” (EBERHARD KARLS UNIVERSITÄT TÜBINGEN, priority 2022, published 2025).

The term IC50 denotes the point on the concentration scale where inhibition reaches its midpoint. Read a high IC50 as a need for much substance. `CCCN(Cc1ccc(-c2cn(CCF)nn2)cc1)c1nc(Cl)nc2c1ncn2[C@@H]1O[C@H](COP(=O)(O)CP(=O)(O)O)C(O)C1O` (stereo partly shown) [Compound 2]: the IC50 in experiment [1] and in experiment [2] was more than 50 µM each time.

For the compound `O=C(NCCCCCCNC(=O)c1ccc2c(c1)C1(OC2=O)c2ccc(O)cc2Oc2cc(O)ccc21)c1ccc(CNc2nc(Cl)nc3c2ncn3[C@@H]2O[C@H](COP(=O)(O)CP(=O)(O)O)[C@@H](O)[C@H]2O)cc1` [Compound 20, (((((2R,3S,4R,5R)-5-(2-chloro-6-((4-((6-(3′,6′-dihydroxy-3-oxo-3H-spiro[isobenzofuran-1,9′-xanthene]-6-carboxamido)-hexyl)carbamoyl)benzyl)amino)-9H-purin-9-yl)-3,4-dihydroxytetrahydrofuran-2-yl)methoxy)(hydroxy)phosphoryl)methyl)phosphonic acid], the values for the IC50 in experiment [1] and in experiment [2] were 27.6 µM and less than 50 µM, respectively.
